# Source: ChEMBL document CHEMBL1127137, “3-phosphono-1-carba-1-dethiacephalosporins as antibacterial agents” (1993)
# How the values were obtained:
# Assay type in all cases: functional
# [1] = system: Staphylococcus aureus; assay: Antimicrobial activity against gram positive Staphylococcus aureus (X1.1) was determined
# [2] = system: Staphylococcus aureus; assay: Antimicrobial activity against gram positive Staphylococcus aureus (V41) was determined
# [3] = system: Escherichia coli; assay: Antimicrobial activity against gram negative Escherichia coli (EC14) was determined
# [4] = system: Staphylococcus epidermidis; assay: Antimicrobial activity against gram positive Staphylococcus epidermidis (222) was determined
# [5] = system: Streptococcus pneumoniae; assay: Antimicrobial activity against gram positive Streptococcus pneumoniae (PARK) was determined
SMILES,MIC [1],MIC [2],MIC [3],MIC [4],MIC [5]
O=C(COc1ccccc1)N[C@@H]1C(=O)N2C(C(=O)O)=C(OP(=O)(O)O)CC[C@H]12,64 µg/mL,> 128 µg/mL,> 128 µg/mL,> 128 µg/mL,> 128 µg/mL
CCOP(=O)(OCC)OC1=C(C(=O)[O-])N2C(=O)[C@@H](NC(=O)COc3ccccc3)[C@H]2CC1.[Na+],0.25 µg/mL,2 µg/mL,64 µg/mL,1 µg/mL,0.25 µg/mL
COP(=O)(OC)OC1=C(C(=O)[O-])N2C(=O)[C@@H](NC(=O)COc3ccccc3)[C@H]2CC1.[Na+],0.5 µg/mL,2 µg/mL,64 µg/mL,1 µg/mL,0.5 µg/mL
CCCCOP(=O)(OCCCC)OC1=C(C(=O)[O-])N2C(=O)[C@@H](NC(=O)COc3ccccc3)[C@H]2CC1.[Na+],0.5 µg/mL,64 µg/mL,> 128 µg/mL,1 µg/mL,0.03 µg/mL
N[C@@H](C(=O)N[C@@H]1C(=O)N2C(C(=O)O)=C(Cl)CC[C@H]12)c1ccccc1 [LORACARBEF ANHYDROUS],2 µg/mL,4 µg/mL,0.05 µg/mL,2 µg/mL,1 µg/mL
CC1(C)S[C@@H]2[C@H](NC(=O)COc3ccccc3)C(=O)N2[C@H]1C(=O)O [PENICILLIN V],0.06 µg/mL,16 µg/mL,128 µg/mL,0.125 µg/mL,0.06 µg/mL
